# Data reported in PubChem BioAssay (NCI).
#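 Test compounds were applied to cells in 96-well plates for 48 hours at 5 doses. Here, GI50 denotes the concentration required for 50% inhibition of growth. TGI: concentration producing complete growth inhibition.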 *1 amine or outer side, *2 acyl side, *3 side chain or, on linkers, in order; H or OH if unused. Where a SMILES comes first, the peptide text is derived from it. Bridges are numbered along the chain shown (N, C = ends). [ ]: non-standard residue; d: D form. The star is where a group is joined. Phe(3,5-F2) = N[C@@H](Cc1cc(F)cc(F)c1)C(=O)O; Pro(4R-Me) = C[C@H]1CN[C@H](C(=O)O)C1; aThr = C[C@H](O)[C@H](N)C(=O)O; Pip = O=C(O)[C@@H]1CCCCN1; X10 = Fc1cc(C2CC2)ccc1N*; Abu = CC[C@H](N)C(=O)O; CO = O=C([*:1])[*:2]
# What was measured:
# Test in all cases: NCI-60 cell line screen, 48 h
# NCI-H522 lung = system: NCI-H522 lung
# HCC-2998 colon = system: HCC-2998 colon
# RXF 393 renal = system: RXF 393 renal
# PC-3 prostate = system: PC-3 prostate
# NCI-H23 lung = system: NCI-H23 lung
# BT-549 breast = system: BT-549 breast
# IGROV1 ovarian = system: IGROV1 ovarian
# ACHN renal = system: ACHN renal
# DU-145 prostate = system: DU-145 prostate
# UACC-62 melanoma = system: UACC-62 melanoma
# SF-539 CNS = system: SF-539 CNS
# 786-0 renal = system: 786-0 renal
# SK-MEL-28 melanoma = system: SK-MEL-28 melanoma
# OVCAR-3 ovarian = system: OVCAR-3 ovarian
# SK-OV-3 ovarian = system: SK-OV-3 ovarian
# TK-10 renal = system: TK-10 renal
# SF-268 CNS = system: SF-268 CNS
# A498 renal = system: A498 renal
# UACC-257 melanoma = system: UACC-257 melanoma
# SR leukemia = system: SR leukemia
# M14 melanoma = system: M14 melanoma
# HOP-62 NSCLC = system: HOP-62 NSCLC
# LOX IMVI melanoma = system: LOX IMVI melanoma
# UO-31 renal = system: UO-31 renal
# HL-60(TB) leukemia = system: HL-60(TB) leukemia
# A549 NSCLC = system: A549 NSCLC
# SF-295 CNS = system: SF-295 CNS
# HCT-15 colon = system: HCT-15 colon
# NCI-H226 lung = system: NCI-H226 lung
# CCRF-CEM leukemia = system: CCRF-CEM leukemia
# EKVX NSCLC = system: EKVX NSCLC
# U251 CNS = system: U251 CNS
# NCI/ADR-RES ovarian = system: NCI/ADR-RES ovarian
# HS 578T breast = system: HS 578T breast
# KM12 colon = system: KM12 colon
# SNB-75 CNS = system: SNB-75 CNS
# MDA-MB-435 = system: MDA-MB-435
# OVCAR-8 ovarian = system: OVCAR-8 ovarian
# MOLT-4 leukemia = system: MOLT-4 leukemia
# HOP-92 NSCLC = system: HOP-92 NSCLC
# SW-620 colon = system: SW-620 colon
# OVCAR-5 ovarian = system: OVCAR-5 ovarian
# T-47D breast = system: T-47D breast
# MDA-MB-231 breast = system: MDA-MB-231 breast
# COLO 205 colon = system: COLO 205 colon
# SN12C renal = system: SN12C renal
# OVCAR-4 ovarian = system: OVCAR-4 ovarian
# K-562 leukemia = system: K-562 leukemia
# SNB-19 CNS = system: SNB-19 CNS
# HT29 colon = system: HT29 colon
# MCF7 breast = system: MCF7 breast
# NCI-H460 lung = system: NCI-H460 lung
# HCT-116 colon = system: HCT-116 colon
# RPMI-8226 leukemia = system: RPMI-8226 leukemia
# MALME-3M melanoma = system: MALME-3M melanoma
# CAKI-1 renal = system: CAKI-1 renal
# SK-MEL-5 melanoma = system: SK-MEL-5 melanoma
# SK-MEL-2 melanoma = system: SK-MEL-2 melanoma
smiles,measurement,setting,value
"CC[C@@H]1NC(=O)[C@@H]2CCCCN2C(=O)[C@@H]2CCCN2C(=O)[C@@H](NC(=O)[C@H](Cc2cc(F)cc(F)c2)NC(=O)Nc2ccc(C3CC3)cc2F)[C@H](C)OC(=O)[C@@H]2C[C@@H](C)CN2C1=O ({X10-CO}-[Phe(3,5-F2)][aThr]P[Pip][Abu][Pro(4R-Me)]; ester 2-C)",GI50,NCI-H522 lung,56 nM
same,TGI,NCI-H522 lung,8480 nM
same,GI50,HCC-2998 colon,61.9 nM
same,TGI,HCC-2998 colon,1620 nM
same,GI50,RXF 393 renal,419 nM
same,TGI,RXF 393 renal,2790 nM
same,GI50,PC-3 prostate,39.6 nM
same,TGI,PC-3 prostate,13000 nM
same,GI50,NCI-H23 lung,65.9 nM
same,TGI,NCI-H23 lung,> 28600 nM
same,GI50,BT-549 breast,90.5 nM
same,GI50,IGROV1 ovarian,223 nM
same,TGI,IGROV1 ovarian,> 36700 nM
same,GI50,ACHN renal,237 nM
same,TGI,ACHN renal,6840 nM
same,GI50,DU-145 prostate,59.3 nM
same,TGI,DU-145 prostate,> 100000 nM
same,GI50,UACC-62 melanoma,81.3 nM
same,TGI,UACC-62 melanoma,2700 nM
same,GI50,SF-539 CNS,137 nM
same,TGI,SF-539 CNS,2460 nM
same,GI50,786-0 renal,205 nM
same,TGI,786-0 renal,15800 nM
same,GI50,SK-MEL-28 melanoma,178 nM
same,TGI,SK-MEL-28 melanoma,2420 nM
same,GI50,OVCAR-3 ovarian,46.3 nM
same,TGI,OVCAR-3 ovarian,2030 nM
same,GI50,SK-OV-3 ovarian,64.2 nM
same,TGI,SK-OV-3 ovarian,9830 nM
same,GI50,TK-10 renal,954 nM
same,TGI,TK-10 renal,> 39100 nM
same,GI50,SF-268 CNS,59.1 nM
same,TGI,SF-268 CNS,> 49600 nM
same,GI50,A498 renal,32 nM
same,TGI,A498 renal,1060 nM
same,GI50,UACC-257 melanoma,48.3 nM
same,TGI,UACC-257 melanoma,6260 nM
same,GI50,SR leukemia,115 nM
same,TGI,SR leukemia,3380 nM
same,GI50,M14 melanoma,50.1 nM
same,TGI,M14 melanoma,1860 nM
same,GI50,HOP-62 NSCLC,65.8 nM
same,TGI,HOP-62 NSCLC,> 86200 nM
same,GI50,LOX IMVI melanoma,74.8 nM
same,TGI,LOX IMVI melanoma,4380 nM
same,GI50,UO-31 renal,326 nM
same,TGI,UO-31 renal,9470 nM
same,GI50,HL-60(TB) leukemia,39.9 nM
same,TGI,HL-60(TB) leukemia,1650 nM
same,GI50,A549 NSCLC,62.5 nM
same,TGI,A549 NSCLC,> 65000 nM
same,GI50,SF-295 CNS,55.2 nM
same,TGI,SF-295 CNS,1540 nM
same,GI50,HCT-15 colon,220 nM
same,TGI,HCT-15 colon,2250 nM
same,GI50,NCI-H226 lung,63.2 nM
same,TGI,NCI-H226 lung,2570 nM
same,GI50,CCRF-CEM leukemia,60.3 nM
same,TGI,CCRF-CEM leukemia,> 100000 nM
same,GI50,EKVX NSCLC,76.7 nM
same,TGI,EKVX NSCLC,> 100000 nM
same,GI50,U251 CNS,52.4 nM
same,TGI,U251 CNS,> 56600 nM
same,GI50,NCI/ADR-RES ovarian,505 nM
same,TGI,NCI/ADR-RES ovarian,> 38100 nM
same,GI50,HS 578T breast,83 nM
same,TGI,HS 578T breast,4980 nM
same,GI50,KM12 colon,258 nM
same,TGI,KM12 colon,3860 nM
same,GI50,SNB-75 CNS,66.7 nM
same,TGI,SNB-75 CNS,6190 nM
same,GI50,MDA-MB-435,49 nM
same,TGI,MDA-MB-435,1720 nM
same,GI50,OVCAR-8 ovarian,42.7 nM
same,TGI,OVCAR-8 ovarian,> 100000 nM
same,GI50,MOLT-4 leukemia,271 nM
same,TGI,MOLT-4 leukemia,> 30000 nM
same,GI50,HOP-92 NSCLC,54.7 nM
same,TGI,HOP-92 NSCLC,4060 nM
same,GI50,SW-620 colon,67.9 nM
same,TGI,SW-620 colon,> 43200 nM
same,GI50,OVCAR-5 ovarian,67.9 nM
same,TGI,OVCAR-5 ovarian,2630 nM
same,GI50,T-47D breast,62.7 nM
same,TGI,T-47D breast,8160 nM
same,GI50,MDA-MB-231 breast,44.7 nM
same,TGI,MDA-MB-231 breast,1500 nM
same,GI50,COLO 205 colon,39.7 nM
same,TGI,COLO 205 colon,1290 nM
same,GI50,SN12C renal,42.9 nM
same,TGI,SN12C renal,> 33800 nM
same,GI50,OVCAR-4 ovarian,37.2 nM
same,TGI,OVCAR-4 ovarian,3260 nM
same,GI50,K-562 leukemia,39.1 nM
same,TGI,K-562 leukemia,> 100000 nM
same,GI50,SNB-19 CNS,44.3 nM
same,TGI,SNB-19 CNS,> 56500 nM
same,GI50,HT29 colon,70.9 nM
same,TGI,HT29 colon,5490 nM
same,GI50,MCF7 breast,43.7 nM
same,TGI,MCF7 breast,14900 nM
same,GI50,NCI-H460 lung,45.9 nM
same,TGI,NCI-H460 lung,2620 nM
same,GI50,HCT-116 colon,42.7 nM
same,TGI,HCT-116 colon,1610 nM
same,GI50,RPMI-8226 leukemia,32.3 nM
same,TGI,RPMI-8226 leukemia,1670 nM
same,GI50,MALME-3M melanoma,108 nM
same,TGI,MALME-3M melanoma,2930 nM
same,GI50,CAKI-1 renal,54.7 nM
same,TGI,CAKI-1 renal,7250 nM
same,GI50,SK-MEL-5 melanoma,59.2 nM
same,TGI,SK-MEL-5 melanoma,1210 nM
same,GI50,SK-MEL-2 melanoma,90.2 nM
same,TGI,SK-MEL-2 melanoma,2570 nM
CCOC(=O)c1c(-c2ccccc2)oc(=O)c(Cc2cccc3cccnc23)c1-c1ccccc1,TGI,NCI-H522 lung,> 10000 nM
same,TGI,HCC-2998 colon,> 10000 nM
same,TGI,RXF 393 renal,> 10000 nM
same,TGI,PC-3 prostate,> 10000 nM
same,TGI,NCI-H23 lung,> 10000 nM
same,TGI,BT-549 breast,> 10000 nM
same,TGI,IGROV1 ovarian,> 10000 nM
same,TGI,ACHN renal,> 10000 nM
same,TGI,DU-145 prostate,> 10000 nM
same,TGI,UACC-62 melanoma,> 10000 nM
same,TGI,SF-539 CNS,> 10000 nM
same,TGI,786-0 renal,> 10000 nM
same,TGI,SK-MEL-28 melanoma,> 10000 nM
same,TGI,OVCAR-3 ovarian,> 10000 nM
same,TGI,SK-OV-3 ovarian,> 10000 nM
same,TGI,TK-10 renal,> 10000 nM
same,TGI,SF-268 CNS,> 10000 nM
same,TGI,A498 renal,> 10000 nM
same,TGI,UACC-257 melanoma,> 10000 nM
same,TGI,SR leukemia,> 10000 nM
same,TGI,M14 melanoma,> 10000 nM
same,TGI,HOP-62 NSCLC,> 10000 nM
same,TGI,LOX IMVI melanoma,> 10000 nM
same,TGI,UO-31 renal,> 10000 nM
same,TGI,HL-60(TB) leukemia,> 10000 nM
same,TGI,A549 NSCLC,> 10000 nM
same,TGI,SF-295 CNS,> 10000 nM
same,TGI,HCT-15 colon,> 10000 nM
same,TGI,NCI-H226 lung,> 10000 nM
same,TGI,CCRF-CEM leukemia,> 10000 nM
same,TGI,EKVX NSCLC,> 10000 nM
same,TGI,U251 CNS,> 10000 nM
same,TGI,NCI/ADR-RES ovarian,> 10000 nM
same,TGI,HS 578T breast,> 10000 nM
same,TGI,KM12 colon,> 10000 nM
same,TGI,SNB-75 CNS,> 10000 nM
same,TGI,MDA-MB-435,> 10000 nM
same,TGI,OVCAR-8 ovarian,> 10000 nM
same,TGI,MOLT-4 leukemia,> 10000 nM
same,TGI,HOP-92 NSCLC,> 10000 nM
same,TGI,SW-620 colon,> 10000 nM
same,TGI,OVCAR-5 ovarian,> 10000 nM
same,TGI,T-47D breast,> 10000 nM
same,TGI,MDA-MB-231 breast,> 10000 nM
same,TGI,COLO 205 colon,> 10000 nM
same,TGI,SN12C renal,> 10000 nM
same,TGI,OVCAR-4 ovarian,> 10000 nM
same,TGI,K-562 leukemia,> 10000 nM
same,TGI,SNB-19 CNS,> 10000 nM
same,TGI,HT29 colon,> 10000 nM
same,TGI,MCF7 breast,> 10000 nM
same,TGI,NCI-H460 lung,> 10000 nM
same,TGI,HCT-116 colon,> 10000 nM
same,TGI,RPMI-8226 leukemia,> 10000 nM
same,TGI,MALME-3M melanoma,> 10000 nM
same,TGI,CAKI-1 renal,> 10000 nM
same,TGI,SK-MEL-5 melanoma,> 10000 nM
same,TGI,SK-MEL-2 melanoma,> 10000 nM
